What was measured:
Assay type in all cases: physicochemical
[1] = Stability of high purity amorphous Tiacumicin material on storage (XRPD)
Protocol: Stoe Stadi P; Mythen1K Detector; Cu-Kα1 radiation; standard measurement conditions: transmission; 40 kV and 40 mA tube power; curved Ge monochromator; 0.02°2θ step size, 12 s step time, 1.5-50.5°2θ scanning range; detector mode: step scan; 1°2θ detector step; standard sample preparation: 10 to 20 mg sample was placed between two acetate foils; sample holder: Stoe transmission sample holder; the sample was rotated during the measurement. Filenames of patterns recorded on this instrument consist of a three-digit number followed by a letter.
Bruker D8; Copper Ka radiation, 40 kV/40 mA; LynxEye detector, 0.02°2θ step size, 37 s step time.
The samples were generally measured without any special treatment other than the application of slight pressure to get a flat surface. Silicon single crystal sample holder types: a) standard holder for polymorphism screening, 0.1 mm deep, less than 20 mg sample required; b) 0.5 mm deep, 12 mm cavity diameter for c. 40 mg; c) 1.0 mm deep, 12 mm cavity diameter for c. 80 mg. All samples measured on the Bruker D8 are rotated during the measurement.
Several samples of high purity amorphous Tiacumicin B material were stored at 40° C./75% relative humidity.
Several samples of high purity amorphous Tiacumicin B material were stored at room temperature under normal light conditions.

[2] = Hygroscopicity / water uptake of high purity amorphous Tiacumicin material
Excerpt: Thus the high purity amorphous Tiacumicin material is relatively stable with respect to crystallization and suitable for long-term storage (e.g storage for 3 months, 6 months, 9 months etc.).

[3] = XRPD of Tiacumicin solvate forms during storage; conditions: FIG. 8A / FIG. 9A
Excerpt: FIG. 8A: XRPD of the Tiacumicin solvate form a during storage. FIG. 9A: XRPD of the Tiacumicin solvate form β during storage. The obtained material comprised 16% w/w acetic acid as measured by TG-FTIR. The obtained material comprised 9% w/w isopropylacetate as measured by TG-FTIR.

Row | Suitability for storage (stability with respect to crystallization) ([1]; as demonstrated in example 7) | Solid state by XRPD after storage ([1]; room temperature storage, at 3 months) | Solid state by XRPD after storage ([1]; stored at 40° C./75% relative humidity, XRPDs at start, 24 hours, 7 days and 1 month) | Solid state by XRPD after storage ([1]; stored at room temperature under normal light conditions, XRPDs at start, 1 month and 2 months) | Deliquescence [2] | Suitability for storage (XRPD during storage) [3] | Structure (SMILES) | Hygroscopicity (water uptake) ([2]; FIG. 7C)
1 | suitable for storage | amorphous material | amorphous material | amorphous material | not deliquescent | – | CCc1c(Cl)c(O)c(Cl)c(O)c1C(=O)O[C@H]1[C@H](O)[C@H](OC)[C@H](OC/C2=C\C=C\C[C@H](O)/C(C)=C/[C@H](CC)[C@@H](O[C@@H]3OC(C)(C)[C@@H](OC(=O)C(C)C)[C@H](O)[C@@H]3O)/C(C)=C/C(C)=C/C[C@@H]([C@@H](C)O)OC2=O)O[C@@H]1C [Tiacumicin B] | hygroscopic with near linear water uptake
2 | – | – | – | – | – | storage suitable | CCc1c(Cl)c(O)c(Cl)c(O)c1C(=O)O[C@H]1[C@H](O)[C@H](OC)[C@H](OC/C2=C\C=C\C[C@H](O)/C(C)=C/[C@H](CC)[C@@H](O[C@@H]3OC(C)(C)[C@@H](OC(=O)C(C)C)[C@H](O)[C@@H]3O)/C(C)=C/C(C)=C/C[C@@H]([C@@H](C)O)OC2=O)O[C@@H]1C [form α of Tiacumicin B, Tiacumicin B] | –
